Assay results taken from US11690824B2, “Antibacterial compounds” (THE GENERAL HOSPITAL CORPORATION, priority 2018, dated 2023).
In brackets after ≈: the same amount, converted by molar mass.

How the values were obtained:
[1] = tested on: MRSA MW2 biofilms; test: Biofilm persister killing assay; format: cell-based, S. aureus; settings: 16 μg/ml nTZDpa combined with 10 μg/ml gentamicin, 24 h
Experimental: Biofilm persister killing assay. An overnight culture of cells was diluted 1:200 with TSB supplemented with 0.2% glucose and 3% NaCl. A 13 mm-diameter Millipore mixed cellulose ester membrane (EMD Millipore GSWP01300) was placed at the bottom of each well of a 12-well plate (Falcon 353043). 1 mL of the diluted culture was added to each well and incubated statically at 37° C. for 24 h. The membranes were washed 3-times with PBS and transferred to a fresh 12-well plate. 1 mL of PBS containing the desired concentration of antibiotics was added to each well, and then the plate was incubated statically at 37° C. for 24 h. The membranes were washed 3 times with PBS, placed in 2-mL microcentrifuge tubes containing 1 mL PBS, and sonicated in an ultrasonic bath (Fisher Scientific FS 30) for 10 min. The sonicated samples were serially diluted and spot-plated on TSA to enumerate the number of live cells. The experiment was conducted in biological triplicate.

[2] = tested on: K. pneumoniae WGLW2; test: MIC assay; format: cell-based, Klebsiella pneumoniae; settings: Klebsiella pneumoniae; K. pneumoniae WGLW2; read-out: Minimum inhibitory concentration
Text: (§1) Bacterial strains, growth conditions, and persister isolation. Methicillin-resistant S. aureus strains, MW2 BAA-1707, ATCC 33591, and JE2, methicillin-susceptible S. aureus strains, NCTC 8325, Newman, and ATCC 29213, vancomycin-resistant S. aureus strain, VRS1, Enterococcus faecium E007, vancomycin-resistant E. faecium strains, C68,^7 WB312, and WC196, Klebsiella pneumoniae WGLW2 (BEI Resources, Manassas, Va., USA), Acinetobacter baumannii ATCC 17978, Pseudomonas aeruginosa PA14, and Enterobacter aerogenes ATCC 13048 were used to test antimicrobial activity (Table 1). S. aureus strains were grown in tryptic soy broth (TSB) (BD, Franklin Lakes, N.J., USA), and E. faecium was grown in brain-heart infusion (BHI) broth (BD, Franklin Lakes, N.J., USA) at 37° C. K. pneumoniae, A. baumannii, P. aeruginosa, and E. aerogenes were grown in Luria Bertani (LB) broth (BD, Franklin Lakes, N.J., USA) at 37° C.
(§2) Minimal inhibitory concentration (MIC) assay. The MICS of antibiotics were determined by the standard micro-dilution method recommended by the Clinical and Laboratory Standards Institute. MIC assays were conducted in biological triplicate.

[3] = tested on: S. aureus and Enterococcus faecium clinical strains; test: MIC against a panel of clinical strains; format: cell-based; settings: panel incl. multidrug-resistant MW2 and VRS1; read-out: minimal inhibitory concentration (MIC)
Text: as §1, §2

[4] = tested on: MRSA MW2; test: Deep-seated mouse thigh infection model; format: in vivo; settings: 5 days
Experimental: Deep-seated mouse thigh infection model. In vivo efficacy of nTZDpa alone or in combination with gentamicin against MRSA persisters was evaluated by a previously described neutropenic mouse thigh infection model with modifications. Six-week-old female CD-I mice (20-25 g, Charles River Laboratories, Wilmington, Mass., USA) were obtained from Charles River Laboratories (Wilmington, Mass., USA). The CD-I mice were rendered neutropenic by administering 150 mg/kg and 100 mg/kg of cyclophosphamide intraperitoneally (i.p.) at 4 days and 1 day before infection, respectively. On the day of infection, overnight culture of MRSA MVV2 was washed 3-time with sterile saline and diluted to 10^7 CFU/ml in the saline. 50 μl of the diluted culture (5×10^5 CFU per mouse) was injected to the right thigh of each mouse. nTZDpa was dissolved in Kolliphor EL (Sigma-Aldrich, St Louis, Mo., USA)/ethanol 1:1 and then diluted 1:10 in saline to a final concentration of 50 mg/kg. At 24 h post-infection, groups of mice (n=10) were treated with 30 mg/kg gentamicin subcutaneously (s.c.) every 12 h, 25 mg/kg vancomycin i.p. every 24 h, 50 mg/kg nTZPpa i.p. every 24 h, or the combination of 50 mg/kg nTZDpa i.p. every 24 h and 30 mg/kg gentamicin s.c. every 12 h for 5 days. Control mice were injected with 250 μl of 10% Kolliphor EL/ethanol in saline i.p. every 24 h for 5 days. Mice were euthanized at 96 h post-infection. Blood was collected by cardiac puncture, and the infected thighs were aseptically excised, weighed, and stored at 4° C. until homogenization. To evaluate hepatic and renal toxicities, the levels of alanine aminotransferase and blood urea nitrogen were analyzed with commercially available kits, following the manufacturer's protocol (Pointe Scientific, Canton, Mich., USA). Thighs were homogenized in PBS, serially diluted with PBS, and spot-plated on TSA plates. […] Statistical significance among each group was analyzed by one-way ANOVA with post-hoc Tukey test using PASW Statistics 18 (SPSS Inc. Chicago, Ill., USA).

[5] = tested on: MRSA-infected C. elegans glp-4(bn2);sek-1(km4); test: C. elegans-MRSA liquid killing assay; format: in vivo
Experimental: C. elegans-MRSA liquid killing assay. The C. elegans-MRSA infection assay was conducted as described in a previous study. Briefly, a black, clear-bottom 384-well plate (Corning no. 3712) was filled with 20 μL M9 buffer including the desired concentrations of nTZDpa, 1% DMSO (negative control), or 10 μg/mL vancomycin (positive control). After adding 15 young adult C. elegans glp-4(bn2);sek-1(km4) animals to the wells using a COPAS large particle sorter (Union Biometrica, Mass., USA), 35 μL of MRSA MW2 suspension was added (OD600 0.08). The assay plate was sealed with a gas-permeable membrane (Breathe-Easy, Diversified Biotech, Dedham, Mass., USA), and then incubated in a humidified chamber at 25° C. for 5 days. After washing the plate 8-times with M9 buffer using a microplate washer (BioTek EL×405, BioTek, Vt., USA), worms were stained with 0.7 μM SYTOX Orange. To evaluate worm survivability, the worms were imaged using an Image Xpress Micro automated microscope (Molecular Devices), capturing both transmitted light and TRITC (535 nm excitation, 610 nm emission) fluorescent images with a 2× objective. Only dead worms stain with SYTOX Orange. The assay was conducted in biological triplicate.

O=C(O)c1c(Sc2ccccc2)c2cc(Cl)ccc2n1Cc1ccc(Cl)cc1 [nTZDpa]
MRSA persisters formed in biofilms [1]: completely eradicated MRSA persisters formed in biofilms
MIC [2]: > 64 µg/mL
MIC [3]: ~4 µg/mL (≈ 9.34 µM)
persister cells killed in thigh ([4]; 50 mg/kg nTZDpa i.p. with 30 mg/kg gentamicin s.c., p<0.001): ~95%
MRSA CFUs / viability of persisters in thigh, single agent ([4]; vancomycin 25 mg/kg i.p., gentamicin 30 mg/kg s.c., nTZDpa 50 mg/kg i.p.): no effect on the viability of persisters
C. elegans rescued from MRSA-mediated lethality ([5]; 2 μg/ml to 16 μg/ml): ~90%
EC50 ([5]; Caenorhabditis elegans, 120 h, read-out: EC50 (median effective concentration), C. elegans survival): ~0.6 µg/mL (≈ 1.4 µM)
EC50 relative to EC50 of vancomycin ([5]; fold higher): 2 fold
